From ChEMBL document CHEMBL6127111, “First-in-Class Small Molecule Degrader of Pregnane X Receptor Enhances Chemotherapy Efficacy” (J Med Chem, 2024) come the findings set out here.

As a reminder, the CC50 is the concentration giving 50% cytotoxicity. As usually defined, the DC50 is the concentration giving 50% degradation.

Series [1] in a line: Cytotoxicity against human SNU-C4 HiBiT-PXR KI cell assessed as cell viability at 30 uM incubated for 24 hrs by celltiter-glo luminescent assay relative to control. The settings on record: read-out: Activity. Type of series: functional. (The HiBiT peptide binds its large partner to form an active luciferase.)
Series [2] can be described thus: Cytotoxicity against human SNU-C4 HiBiT-PXR KI cell assessed as cell viability incubated for 24 hrs by celltiter-glo luminescent assay. The series is classed as functional.
A short description of series [3]: Cytotoxicity against human SNU-C4 HiBiT-PXR KI cell assessed as cell viability incubated for 72 hrs by celltiter-glo luminescent assay. The series is classed as functional.
Series [4] is described as follows: Cytotoxicity against human SNU-C4 HiBiT-PXR KI cell assessed as cell viability at 30 uM incubated for 72 hrs by celltiter-glo luminescent assay relative to control. The series is classed as functional. The settings on record: read-out: Activity.
Series [5] deals with T1, von Hippel-Lindau disease tumor suppressor/Nuclear receptor subfamily 1 group I member 2 (Homo sapiens, UniProt O75469+P40337). The experiment in a line: PROTAC activity at N-terminal PXR/VHL in human SNU-C4 HiBiT-PXR KI cell assessed as PXR degradation upto 10 uM incubated at 24 hrs by Western blot analysis. The series is classed as cell-based.
T1 sequence (P40337 whole entry, one chain of several): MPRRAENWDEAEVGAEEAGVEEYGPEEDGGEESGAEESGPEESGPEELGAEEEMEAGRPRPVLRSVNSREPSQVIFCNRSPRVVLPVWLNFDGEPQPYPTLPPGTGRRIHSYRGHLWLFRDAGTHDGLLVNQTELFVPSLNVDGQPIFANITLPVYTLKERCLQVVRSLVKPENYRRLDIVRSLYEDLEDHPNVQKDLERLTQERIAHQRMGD
Series [6] addresses T1, von Hippel-Lindau disease tumor suppressor/Nuclear receptor subfamily 1 group I member 2. Briefly: PROTAC activity at […] PXR/VHL in human SNU-C4 HiBiT-PXR KI cell assessed as PXR degradation incubated at 24 hrs by Western blot analysis. Type of series: cell-based.
For series [7] the target is unchanged. The experiment in a line: PROTAC activity at PXR/VHL in human SNU-C4 HiBiT-PXR KI cell assessed as PXR degradation at 1 uM incubated for 8 hrs in presence of methyl (S)-3-(1-(2,5-dimethoxyphenyl)-5-methyl-1H-1,2,3-triazole-4-carboxamido)-4-(hexan-3-yloxy)benzoate by Western blot analysis. Type of series: cell-based.
The target is the same in series [8]. Briefly: PROTAC activity at PXR/VHL in human SNU-C4 HiBiT-PXR KI cell assessed as PXR degradation at 1 uM incubated for 8 hrs in presence of VH032 by Western blot analysis. The series is classed as cell-based.
Series [9] shares this target. Briefly: PROTAC activity at PXR/VHL in human SNU-C4 HiBiT-PXR KI cell assessed as PXR degradation at 1 uM incubated for 8 hrs in presence of MG132 by Western blot analysis. The series is classed as cell-based.
For series [10] the target is unchanged. Briefly: PROTAC activity at PXR/VHL in human SNU-C4 HiBiT-PXR KI cell assessed as PXR degradation at 1 uM incubated for 8 hrs in presence of MLN4924 by Western blot analysis. Type of series: cell-based.
Series [11] addresses von Hippel-Lindau disease tumor suppressor/Nuclear receptor subfamily 1 group I member 3 (Homo sapiens, UniProt Q14994+P40337). Briefly: PROTAC activity at CAR/VHL in HEK293T cells assessed as CAR degradation at 0.001 to 100 uM incubated for 24 hrs. As to conditions: dose 0.001-100 µM. The series is classed as cell-based.
Series [12] has as its target von Hippel-Lindau disease tumor suppressor/Vitamin D3 receptor (Homo sapiens) (UniProt P11473+P40337). Briefly: PROTAC activity at VDR/VHL in HEK293T cells assessed as VDR degradation at 0.001 to 100 uM incubated for 24 hrs. Type of series: cell-based. As to conditions: dose 0.001-100 µM.
The target of series [13] is von Hippel-Lindau disease tumor suppressor/Bile acid receptor (Homo sapiens) (UniProt Q96RI1+P40337). The experiment in a line: PROTAC activity at FXR/VHL in HEK293T cells assessed as FXR degradation at 0.001 to 100 uM incubated for 24 hrs. Type of series: cell-based. The settings on record: dose 0.001-100 µM.
von Hippel-Lindau disease tumor suppressor/Bile acid receptor (Homo sapiens), sequence (P40337 whole entry, looked up): as the sequence (P40337 whole entry, one chain of several) above
von Hippel-Lindau disease tumor suppressor/Bile acid receptor (Homo sapiens), sequence (Q96RI1 whole entry, looked up): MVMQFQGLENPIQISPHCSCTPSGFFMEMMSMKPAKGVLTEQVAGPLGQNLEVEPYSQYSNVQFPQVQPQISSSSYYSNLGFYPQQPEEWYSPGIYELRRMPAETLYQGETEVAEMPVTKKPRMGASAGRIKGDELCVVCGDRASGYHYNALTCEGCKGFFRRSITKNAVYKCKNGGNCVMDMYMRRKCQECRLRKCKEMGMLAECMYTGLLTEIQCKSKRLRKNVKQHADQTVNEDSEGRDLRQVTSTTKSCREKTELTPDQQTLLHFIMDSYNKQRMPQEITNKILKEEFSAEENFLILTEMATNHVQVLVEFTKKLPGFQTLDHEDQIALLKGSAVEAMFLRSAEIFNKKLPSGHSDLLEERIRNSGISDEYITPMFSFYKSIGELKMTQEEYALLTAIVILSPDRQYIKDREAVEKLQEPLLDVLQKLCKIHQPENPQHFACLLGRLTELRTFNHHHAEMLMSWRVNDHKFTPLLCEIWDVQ
For series [14], the target named is von Hippel-Lindau disease tumor suppressor/Oxysterols receptor LXR-alpha (Homo sapiens) (UniProt Q13133+P40337). The experiment in a line: PROTAC activity at LXRalpha/VHL in HEK293T cells assessed as LXRalpha degradation at 0.001 to 100 uM incubated for 24 hrs. The series is classed as cell-based. As to conditions: dose 0.001-100 µM.
von Hippel-Lindau disease tumor suppressor/Oxysterols receptor LXR-alpha (Homo sapiens), sequence (P40337 whole entry, looked up): as the sequence (P40337 whole entry, one chain of several) above
von Hippel-Lindau disease tumor suppressor/Oxysterols receptor LXR-alpha (Homo sapiens), sequence (Q13133 whole entry, looked up): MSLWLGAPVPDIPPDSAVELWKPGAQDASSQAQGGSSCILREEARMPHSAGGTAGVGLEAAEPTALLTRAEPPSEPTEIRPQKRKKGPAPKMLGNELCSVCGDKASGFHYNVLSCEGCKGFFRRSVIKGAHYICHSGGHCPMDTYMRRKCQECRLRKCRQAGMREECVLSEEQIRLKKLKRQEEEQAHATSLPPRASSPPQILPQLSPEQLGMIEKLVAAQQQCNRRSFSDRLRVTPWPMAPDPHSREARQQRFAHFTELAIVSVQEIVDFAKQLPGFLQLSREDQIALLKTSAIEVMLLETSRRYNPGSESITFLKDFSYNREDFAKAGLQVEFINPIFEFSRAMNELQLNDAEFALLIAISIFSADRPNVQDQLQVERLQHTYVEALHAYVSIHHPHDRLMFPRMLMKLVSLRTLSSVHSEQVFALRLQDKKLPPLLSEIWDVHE
For series [15], the target named is von Hippel-Lindau disease tumor suppressor/Oxysterols receptor LXR-beta (Homo sapiens) (UniProt P55055+P40337). The experiment in a line: PROTAC activity at LXRbeta/VHL in HEK293T cells assessed as LXRbeta degradation at 0.001 to 100 uM incubated for 24 hrs. The series is classed as cell-based. As to conditions: dose 0.001-100 µM.
von Hippel-Lindau disease tumor suppressor/Oxysterols receptor LXR-beta (Homo sapiens), sequence (P40337 whole entry, looked up): as the sequence (P40337 whole entry, one chain of several) above
von Hippel-Lindau disease tumor suppressor/Oxysterols receptor LXR-beta (Homo sapiens), sequence (P55055 whole entry, looked up): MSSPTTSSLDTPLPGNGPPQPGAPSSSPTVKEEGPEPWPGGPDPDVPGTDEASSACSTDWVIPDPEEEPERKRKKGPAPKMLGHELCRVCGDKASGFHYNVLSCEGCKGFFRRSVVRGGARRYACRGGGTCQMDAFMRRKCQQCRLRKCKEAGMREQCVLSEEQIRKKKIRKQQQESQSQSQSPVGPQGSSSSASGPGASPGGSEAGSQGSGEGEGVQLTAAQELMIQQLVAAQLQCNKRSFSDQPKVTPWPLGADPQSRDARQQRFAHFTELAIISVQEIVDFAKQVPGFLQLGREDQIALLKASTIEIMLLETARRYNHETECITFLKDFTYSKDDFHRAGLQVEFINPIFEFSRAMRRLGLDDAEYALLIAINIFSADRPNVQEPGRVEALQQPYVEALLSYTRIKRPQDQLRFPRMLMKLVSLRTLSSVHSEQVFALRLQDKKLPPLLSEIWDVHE
Series [16] concerns the target T2, Nuclear receptor subfamily 1 group I member 2 (Homo sapiens, UniProt O75469).
T2 sequence (O75469 whole entry): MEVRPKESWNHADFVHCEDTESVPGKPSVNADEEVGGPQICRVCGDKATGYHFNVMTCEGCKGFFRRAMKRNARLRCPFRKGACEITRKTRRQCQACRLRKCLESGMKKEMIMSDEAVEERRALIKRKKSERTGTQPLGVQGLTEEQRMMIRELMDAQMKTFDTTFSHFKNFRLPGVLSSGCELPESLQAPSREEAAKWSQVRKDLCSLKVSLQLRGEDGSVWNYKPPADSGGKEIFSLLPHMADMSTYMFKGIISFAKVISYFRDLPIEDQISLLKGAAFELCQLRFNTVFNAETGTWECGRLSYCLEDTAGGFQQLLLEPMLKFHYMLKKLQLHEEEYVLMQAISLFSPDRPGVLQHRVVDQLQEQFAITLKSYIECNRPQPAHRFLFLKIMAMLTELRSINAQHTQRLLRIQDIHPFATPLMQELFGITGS
The experiment in a line: Inhibition of PXR activation in human HepG2 cells transfected with CYP3A4 incubated for 24 hrs in presence of rifampicin. Type of series: cell-based. As to conditions: hepg2, 24 h.

In series [17] the target is T2, Nuclear receptor subfamily 1 group I member 2. Briefly: Inhibition of PXR activation in human HepG2 cells transfected with CYP3A4 incubated for 24 hrs in presence of T0901317. Type of series: cell-based. The settings on record: hepg2, 24 h.
Series [18] has the same target. The experiment in a line: Inhibition of PXR activation in human HepG2 cells transfected with CYP3A4 incubated for 24 hrs in presence of paclitaxel. As to conditions: hepg2, 24 h. Type of series: cell-based.
Another series concerns HepG2. Briefly: Reduction in basal PXR activity on CYP3A4 promoter in human HepG2 cells at 10 uM in absence of PXR agonist. Type of series: functional, cell-based.
Series [19] deals with T2, Nuclear receptor subfamily 1 group I member 2. Briefly: Inhibition of PXR activation in human SNU-C4 cells transfected with CYP3A4 at 10 uM incubated for 24 hrs in presence of paclitaxel. The series is classed as cell-based. The settings on record: snu-c4, 24 h.
For series [20], the system named is SNU-C4. Briefly: Effect on PXR mRNA level in human SNU-C4 cells at 10 uM incubated for 24 hrs in presence of paclitaxel by RT-qPCR analysis. Type of series: functional, cell-based. Background: In qPCR the cycle at which signal appears reflects the starting amount.
Series [21] deals with SNU-C4. Briefly: Cytotoxicity against human SNU-C4 cells assessed as cell viability incubated for 72 hrs in presence of paclitaxel. Type of series: functional.
Series [22] concerns the target T1, von Hippel-Lindau disease tumor suppressor/Nuclear receptor subfamily 1 group I member 2. Briefly: PROTAC activity at PXR/VHL in human SNU-C4 HiBiT-PXR KI cell assessed as inhibition of LBD-VCB complex formation at 41.2 nM incubated for 24 hrs by TR-FRET assay. As to conditions: 0.0412 µM. The series is classed as cell-based.

Active and inactive are the calls of the source. The calls are words filed in the database; no cut-off is given here.

von Hippel-Lindau disease tumor suppressor/Vitamin D3 receptor (Homo sapiens), sequence (P11473 whole entry, looked up): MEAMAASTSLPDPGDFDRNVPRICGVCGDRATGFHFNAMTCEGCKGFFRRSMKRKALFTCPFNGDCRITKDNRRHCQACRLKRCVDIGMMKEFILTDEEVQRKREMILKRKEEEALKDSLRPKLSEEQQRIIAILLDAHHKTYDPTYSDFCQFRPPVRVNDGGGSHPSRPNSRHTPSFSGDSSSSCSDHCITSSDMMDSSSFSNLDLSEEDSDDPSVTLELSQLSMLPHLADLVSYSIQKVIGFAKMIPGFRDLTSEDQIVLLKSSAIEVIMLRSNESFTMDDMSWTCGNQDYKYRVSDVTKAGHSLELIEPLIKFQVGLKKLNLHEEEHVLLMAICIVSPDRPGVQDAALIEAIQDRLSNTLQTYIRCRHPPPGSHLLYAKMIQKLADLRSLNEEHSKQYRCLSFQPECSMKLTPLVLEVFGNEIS
von Hippel-Lindau disease tumor suppressor/Vitamin D3 receptor (Homo sapiens), sequence (P40337 whole entry, looked up): as the sequence (P40337 whole entry, one chain of several) above
von Hippel-Lindau disease tumor suppressor/Nuclear receptor subfamily 1 group I member 3, sequence (Q14994 whole entry): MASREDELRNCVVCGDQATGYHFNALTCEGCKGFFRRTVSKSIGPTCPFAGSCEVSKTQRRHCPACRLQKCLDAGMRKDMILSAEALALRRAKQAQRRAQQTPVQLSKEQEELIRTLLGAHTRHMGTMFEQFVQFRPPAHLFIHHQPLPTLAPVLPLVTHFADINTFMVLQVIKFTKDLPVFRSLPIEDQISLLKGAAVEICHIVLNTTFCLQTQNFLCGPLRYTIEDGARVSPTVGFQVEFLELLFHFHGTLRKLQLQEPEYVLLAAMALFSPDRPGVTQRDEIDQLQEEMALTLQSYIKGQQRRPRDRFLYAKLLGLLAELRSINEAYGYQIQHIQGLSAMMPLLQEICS
von Hippel-Lindau disease tumor suppressor/Nuclear receptor subfamily 1 group I member 3, sequence (P40337 whole entry): as the sequence (P40337 whole entry, one chain of several) above

For `CCC[C@H](CC)Oc1ccc(C(C)(C)C)cc1NC(=O)c1nnn(-c2cc(OC)c(OCCCCCCOCCOCC(=O)N[C@H](C(=O)N3C[C@H](O)C[C@H]3C(=O)NCc3ccc(-c4scnc4C)cc3)C(C)(C)C)cc2OC)c1C`, the viability at 30 µM amounted to 97.4% in series [1] and 99.5% in series [4]. In addition, the CC50 in [2] and in series [3] was greater than 30 µM throughout. Also, the Activity result is “Active” in series [5]; “Not Active” in [7]; “Not Active” in series [8]; “Not Active” in series [9]; “Not Active” in series [10]; “Not Active” in series [11]. Also, in [6], the DC50 amounted to 0.0531 µM. For the same molecule, the result in [12], in [13], in [14] and in [15] was inactive.

Turning to `CCC[C@H](CC)Oc1ccc(C(=O)OC)cc1NC(=O)c1nnn(-c2cc(OC)c(OCCCCCCOCCOCC(=O)N[C@H](C(=O)N3C[C@H](O)C[C@H]3C(=O)NCc3ccc(-c4scnc4C)cc3)C(C)(C)C)cc2OC)c1C`, the viability at 30 µM in [1] turned out to be 102%; in series [4], 105%. For the same molecule, the CC50 was greater than 30 µM in [2], greater than 30 µM in [3] and 9.53 µM in the series with SNU-C4 [21]. The Activity entry in series [5] was “Active”; in [7], “Not Active”; in series [8] it was “Not Active”; in series [9], “Not Active”; in series [10], “Not Active”; in series [11] it was “Not Active”. Besides, the “inhibition (INH)” value in [16], in series [17], in series [18] and in series [19] was “Active” throughout. In the series with HepG2, the result was Active. Also, the result (in the series with SNU-C4 [20]; in [12]; in series [13]; in series [14]; in series [15]) was inactive.

`CC(=O)N[C@H](C(=O)N1C[C@@H](O)C[C@H]1C(=O)NCc1ccc(-c2scnc2C)cc1)C(C)(C)C`: the Activity result in [22] is listed as “Not Active”.
